US20240199605A1, “SMALL MOLECULAR INHIBITORS OF NF-kB INDUCING KINASE” (Janssen Pharmaceutica NV, priority 2019, published 2024)

How the values were obtained:
[1] = tested on: p-IKKα levels in L363 (NIK translocated multiple myeloma) cells; test: Effect of compounds on p-IKKα levels in L363 cells (AlphaLISA SureFire Ultra); format: cell-based, human; settings: Homo sapiens, L-363, 6 h, BAFF stimulated, MG132, 6 h, average of values, read-out: Assay 2 IC50
Protocol: Effect of Compounds on p-IKKα Levels in L363 (NIK Translocated Multiple Myeloma) Cells
All compounds tested were dissolved and serially diluted in DMSO, 1:3 dilution for 11 points in an Echo compatible plate. 100% DMSO was added to columns 12 and 24 of the plate to serve as high and low signal controls. This compound plate was used to spot 20 nL of compound or DMSO into a Greiner 384 well TC plate (781080). The final DMSO concentration was 0.3% (v/v) in cell assays. Human L363 cells (ATCC) were cultured in RPM11640 medium supplemented with GlutaMax, non-essential amino acids, sodium pyruvate and 10% fetal bovine serum. Cells were routinely maintained at densities of […] at 37° C. in a humidified 5% CO2 atmosphere incubator. Cells were passaged twice a week splitting back to obtain the low density. The day before the assay, cells were washed twice in HBSS (Hank's Balanced Salt Solution), resuspended in Dulbecco's Modified Eagle Medium (DMEM)+0.5% IgG and protease free BSA (Jackson Immuno Research Laboratories), +/−250 ng/ml recombinant human B-cell activating factor (BAFF/BLyS/TNFSF13B) and incubated overnight at 37° C. in a humidified 5% CO2 atmosphere (bulk stimulation with or without BAFF). The next day, the cell concentration was adjusted to 1×10^7 cells/ml in DMEM+/−250 ng/ml BAFF+/−10 μM MG132 and plated at 10 μl/well into compound or DMSO spotted 384 well TC plates. Seeded cells were incubated at 37° C. in a humidified 5% CO2 atmosphere for 6 h. After 6 h, the plates were removed from the incubator and cell lysis was achieved by the addition of 2.5 μl 5× lysis buffer containing protease and phosphatase inhibitors, followed by shaking on a plate shaker at room temperature for 15 min. At the end of this incubation, lysed cells were sequentially treated and incubated with acceptor and donor bead mixes according to the manufacturer's protocol for a 1 plate/2-incubation suspension cell assay (AlphaLISA SureFire Ultra p-IKKa (Ser 176/180) Assay Kit (Perkin Elmer). Plates were read using an EnVision® Multilabel Plate Reader (Perkin Elmer). Within an experiment, a concentration response curve for each compound was run in duplicate. The signal obtained in the test wells was normalized using high signal (BAFF stimulated cells, DMSO, MG132) and low signal (unstimulated cells, DMSO) controls. To determine the IC50, a sigmoidal curve was fitted to the plot of % inhibition versus Log10 compound concentration.

[2] = molecular target: recombinant human NF-kappaB-inducing kinase (NIK/MAP3K14) (Homo sapiens (Human), UniProt Q99558); test: Inhibition of auto-phosphorylation of recombinant human NIK/MAP3K14 (AlphaScreen); format: biochemical; settings: NIK auto-phosphorylation, 5 μM ATP, 1 nM NIK, 2 h at 25° C.; average of values
recombinant human NF-kappaB-inducing kinase (NIK/MAP3K14), sequence (Q99558 whole entry): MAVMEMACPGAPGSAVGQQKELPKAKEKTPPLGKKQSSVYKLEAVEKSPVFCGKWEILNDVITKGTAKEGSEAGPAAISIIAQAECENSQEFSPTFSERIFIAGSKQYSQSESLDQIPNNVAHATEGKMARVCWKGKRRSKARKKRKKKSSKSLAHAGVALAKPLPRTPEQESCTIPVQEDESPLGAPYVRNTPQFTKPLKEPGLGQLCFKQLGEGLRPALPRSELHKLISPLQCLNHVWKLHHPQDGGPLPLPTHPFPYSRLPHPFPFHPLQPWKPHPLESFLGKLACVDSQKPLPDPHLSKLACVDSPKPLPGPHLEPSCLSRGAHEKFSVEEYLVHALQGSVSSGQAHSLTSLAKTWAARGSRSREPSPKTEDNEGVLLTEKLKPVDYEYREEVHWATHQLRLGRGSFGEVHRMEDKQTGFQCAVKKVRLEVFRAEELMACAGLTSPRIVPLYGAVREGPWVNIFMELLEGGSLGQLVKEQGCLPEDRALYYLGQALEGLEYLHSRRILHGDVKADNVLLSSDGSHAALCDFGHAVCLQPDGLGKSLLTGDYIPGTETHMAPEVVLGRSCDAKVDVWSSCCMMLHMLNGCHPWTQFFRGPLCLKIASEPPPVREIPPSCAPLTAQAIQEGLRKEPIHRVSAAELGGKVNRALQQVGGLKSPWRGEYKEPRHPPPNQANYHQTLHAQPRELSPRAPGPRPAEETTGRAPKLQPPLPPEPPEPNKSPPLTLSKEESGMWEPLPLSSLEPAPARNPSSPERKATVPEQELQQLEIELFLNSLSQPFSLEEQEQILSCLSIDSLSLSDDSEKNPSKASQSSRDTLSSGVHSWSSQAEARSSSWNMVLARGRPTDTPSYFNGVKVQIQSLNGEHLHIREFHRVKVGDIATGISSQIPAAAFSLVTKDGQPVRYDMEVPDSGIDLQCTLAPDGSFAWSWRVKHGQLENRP
Protocol: Inhibition of auto-phosphorylation of recombinant human NF-kappaB-inducing kinase (NIK/MAP3K14) activity (AlphaScreen®)
NIK/MAP3K14 auto-phosphorylation activity was measured using the AlphaScreen® (αscreen) format (Perkin Elmer). All compounds tested were dissolved in dimethyl sulfoxide (DMSO) and further dilutions were made in assay buffer. The final DMSO concentration was 0.7% (v/v) in assays. The assay buffer was 50 mM Tris pH 7.5 containing 1 mM EGTA (ethylene glycol tetraacetic acid), 1 mM DTT (dithiothreitol), 0.1 mM Na3VO4, 5 mM MgCl2, and 0.01% Tween® 20. The assays were carried out in 384 well Proxiplates (Perkin Elmer). The incubations consisted of the compound, 5 μM Adenosine-5′-triphosphate (ATP), and 1 nM NIK/MAP3K14. Incubations were initiated by the addition of GST-tagged NIK/MAP3K14 enzyme, carried out for 2 h at 25° C. and terminated by addition of stop buffer containing anti-phospho-IKK Ser176/180 antibody. Protein A Acceptor and Glutathione-Donor beads were added before reading using an EnVision® Multilabel Plate Reader (Perkin Elmer). […] IC50's were determined by fitting a sigmoidal curve to % inhibition of control versus Log10 compound concentration.

Compound | IC50 [1] | IC50 [2]
Cc1ccc(C#C[C@@]2(O)CCN(C)C2=O)cc1-c1nc2c(N)ncnc2s1 [Example 11, (S)-3-((3-(7-Aminothiazolo[5,4-d]pyrimidin-2-yl)-4-methylphenyl)ethynyl)-3-hydroxy-1-methylpyrrolidin-2-one] | 2060 nM | 83 nM
Cc1cc([C@](C)(O)C#Cc2cccc(-c3ccc4ncnc(N)c4c3)c2)no1 [Example 104, (R)-4-[3-(4-Aminoquinazolin-6-yl)phenyl]-2-(5-methylisoxazol-3-yl)but-3-yn-2-ol] | 280 nM | 1.3 nM
Cc1ccc(C#C[C@]2(O)CCN(C)C2=O)cc1-c1ncc2ncnc(N)c2n1 [Example 188, (R)-3-((3-(8-Aminopyrimido[5,4-d]pyrimidin-2-yl)-4-methylphenyl)ethynyl)-3-hydroxy-1-methylpyrrolidin-2-one] | 23 nM | 1 nM
CN1CC[C@@](O)(C#Cc2cccc(-c3ccc4nccc(N5CCC5)c4c3)c2)C1=O [Example 235, (R)-3-((3-(4-(Azetidin-1-yl)quinolin-6-yl)phenyl)ethynyl)-3-hydroxy-1-methylpyrrolidin-2-one] | > 5000 nM | 2950 nM
CN1CC[C@@](O)(C#Cc2cccc(N3CCCc4ncnc(N)c4C3)c2)C1=O [Example 224, (R)-3-((3-(4-Amino-5,7,8,9-tetrahydro-6H-pyrimido[5,4-c]azepin-6-yl)phenyl)ethynyl)-3-hydroxy-1-methylpyrrolidin-2-one] | > 5000 nM | 250 nM
CN1CC[C@@](O)(C#Cc2cccc(-c3ccc4nc(F)nc(N)c4n3)c2)C1=O [Example 288, (R)-3-((3-(4-Amino-2-fluoropyrido[3,2-d]pyrimidin-6-yl)phenyl)ethynyl)-3-hydroxy-1-methylpyrrolidin-2-one] | 16 nM | 0.9 nM
CN1CC[C@@](O)(C#Cc2cccc(-c3ccc4ncnc(N5CC(O)C5)c4n3)c2)C1=O [Example 228, (R)-3-Hydroxy-3-((3-(4-(3-hydroxyazetidin-1-yl)pyrido[3,2-d]pyrimidin-6-yl)phenyl)ethynyl)-1-methylpyrrolidin-2-one] | 300 nM | 4.8 nM
CN1CC[C@@](O)(C#Cc2cccc(-c3ccc4nc[nH]c(=O)c4n3)c2)C1=O [Example 221, (R)-6-(3-((3-Hydroxy-1-methyl-2-oxopyrrolidin-3-yl)ethynyl)phenyl)pyrido[3,2-d]pyrimidin-4(3H)-one] | > 5000 nM | 630 nM
CN1CC[C@@](O)(C#Cc2cccc(-c3nc(N(C)C)c4ccnc(N)c4n3)c2)C1=O [Example 58, (R)-3-((3-(8-Amino-4-(dimethylamino)pyrido[3,4-d]pyrimidin-2-yl)phenyl)ethynyl)-3-hydroxy-1-methylpyrrolidin-2-one] | 15 nM | 0.7 nM
CN1CC[C@@](O)(C#Cc2cccc(-c3cnc4ncnc(N)c4c3)c2)C1=O [Example 109, (R)-3-((3-(4-Aminopyrido[2,3-d]pyrimidin-6-yl)phenyl)ethynyl)-3-hydroxy-1-methylpyrrolidin-2-one] | > 5000 nM | 13 nM
CN1CC[C@@](O)(C#Cc2cccc(-c3cc(C4CC4)c4ncnc(N)c4n3)c2)C1=O [Example 302, (R)-3-((3-(4-Amino-8-cyclopropylpyrido[3,2-d]pyrimidin-6-yl)phenyl)ethynyl)-3-hydroxy-1-methylpyrrolidin-2-one] | 4.5 nM | ≤ 0.5 nM
CN1CC[C@@](O)(C#Cc2cccc(-c3cnc4ncnc(N)c4n3)c2)C1=O [Example 15, (R)-3-[2-[3-(4-Aminopteridin-6-yl)phenyl]ethynyl]-3-hydroxy-1-methyl-pyrrolidin-2-one] | 50 nM | 0.9 nM
Cc1nc(N)c2nc(-c3cccc(C#C[C@@]4(O)CCN(C)C4=O)c3)ccc2n1 [Example 7, (S)-3-((3-(4-Amino-2-methylpyrido[3,2-d]pyrimidin-6-yl)phenyl)ethynyl)-3-hydroxy-1-methylpyrrolidin-2-one] | 2300 nM | 170 nM
CN1CC[C@@](O)(C#Cc2cccc(N3CCc4ccnc(N)c4C3)c2)C1=O [Example 20, (R)-3-((3-(8-Amino-3,4-dihydro-2,7-naphthyridin-2(1H)-yl)phenyl)ethynyl)-3-hydroxy-1-methylpyrrolidin-2-one] | 55 nM | 1.2 nM
Cc1ccc(C#C[C@]2(O)CCN(C)C2=O)cc1-c1ncc2c(C)cnc(N)c2n1 [Example 65, (R)-3-[2-[3-(8-Amino-5-methyl-pyrido[3,4-d]pyrimidin-2-yl)-4-methyl-phenyl]ethynyl]-3-hydroxy-1-methyl-pyrrolidin-2-one] | 48 nM | 1 nM
Cc1nc(N)c2nc(-c3cccc(C#C[C@](C)(O)c4nc(C(F)(F)F)cs4)c3)ccc2n1 [Example 193, (S)-4-(3-(4-Amino-2-methylpyrido[3,2-d]pyrimidin-6-yl)phenyl)-2-(4-(trifluoromethyl)thiazol-2-yl)but-3-yn-2-ol] | > 5000 nM | 2370 nM
CN1CC[C@@](O)(C#Cc2cccc(-c3ncc4c(CN5CCCC5)cnc(N)c4n3)c2)C1=O [Example 133, (R)-3-[2-[3-[8-Amino-5-(pyrrolidin-1-ylmethyl)pyrido[3,4-d]pyrimidin-2-yl]phenyl]ethynyl]-3-hydroxy-1-methyl-pyrrolidin-2-one] | 400 nM | 6.8 nM
CN1CC[C@@](O)(C#Cc2cccc(-c3cc(OCCC(F)(F)F)c4ncnc(N)c4n3)c2)C1=O [Example 306, (R)-3-[2-[3-[4-Amino-8-(3,3,3-trifluoropropoxy)pyrido[3,2-d]pyrimidin-6-yl]phenyl]ethynyl]-3-hydroxy-1-methyl-pyrrolidin-2-one] | 26 nM | 1.9 nM
CN1CC[C@@](O)(C#Cc2cccc(-c3ccc4ncnc(N5CC(C#N)C5)c4n3)c2)C1=O [Example 242, (R)-1-(6-(3-((3-Hydroxy-1-methyl-2-oxopyrrolidin-3-yl)ethynyl)phenyl)pyrido[3,2-d]pyrimidin-4-yl)azetidine-3-carbonitrile] | 320 nM | 7.4 nM
CN1CC[C@@](O)(C#Cc2cccc(-c3ccc4ccnc(N)c4c3)c2)C1=O [Example 36, (R)-3-[2-[3-(1-Amino-7-isoquinolyl)phenyl]ethynyl]-3-hydroxy-1-methyl-pyrrolidin-2-one] | 200 nM | 1.9 nM
[2H]c1nc(N)c2nc(-c3cccc(C#C[C@]4(O)CCN(C)C4=O)c3)cc(C3CCNCC3)c2n1 [Example 287, (R)-3-((3-(4-Amino-8-(piperidin-4-yl)pyrido[3,2-d]pyrimidin-6-yl-2-d)phenyl)ethynyl)-3-hydroxy-1-methylpyrrolidin-2-one] | > 5000 nM | 44 nM
CN1CC[C@@](O)(C#Cc2cccc(-c3cc(C(F)(F)F)c4ncnc(N)c4n3)c2)C1=O [Example 284, (R)-3-((3-(4-Amino-8-(trifluoromethyl)pyrido[3,2-d]pyrimidin-6-yl)phenyl)ethynyl)-3-hydroxy-1-methylpyrrolidin-2-one] | 2.8 nM | 0.7 nM
Cc1nc(N)c2nc(-c3cccc(C#C[C@@](C)(O)c4cnccn4)c3)ccc2n1 [Example 200, (R)-4-[3-(4-Amino-2-methyl-pyrido[3,2-d]pyrimidin-6-yl)phenyl]-2-pyrazin-2-yl-but-3-yn-2-ol] | 3190 nM | 29 nM
